# From patent US12655116B2, “Substituted isophthalic acid diamides” (Bayer Aktiengesellschaft, priority 2020, dated 2026)
# Legend:
# VIOTR [1] = assay: Post-emergence herbicidal action against VIOTR; type: in vivo, Viola tricolor; settings: Viola tricolor, 504 h
# In short: (§1)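 Foliar application at one-leaf stage of formulated test compounds, aqueous spray at 600–800 l/ha with 0.2% wetting agent. Greenhouse, optimal conditions, ~3 weeks; damage scored visually in % relative to untreated plants.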
# ECHCG [2] = assay: Post-emergence herbicidal action against ECHCG; type: in vivo, Echinochloa crus-galli; settings: Echinochloa crus-galli, 504 h; for pest or weed control at 5 g/ha: dosage 5 g/ha; for pest or weed control at 20 g/ha: dosage 20 g/ha
# In short: as §1
# AVEFA = assay: Pre-emergence herbicidal action against AVEFA; type: in vivo, Avena fatua; settings: Avena fatua, 504 h; 80 g/ha, pre-emergence
# In short: (§2)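 Greenhouse pots of sandy loam held seeds covered with soil, onto which the compound was applied before emergence. An aqueous suspension or emulsion of WP or EC was used at 600 to 800 l/ha with 0.2% wetting agent. Percent damage was judged visually at 3 weeks.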
# POLCO [3] = assay: Post-emergence herbicidal action against POLCO; type: in vivo, Polygonum convolvulus; settings: Fallopia convolvulus, 504 h, dosage 20 g/ha
# In short: as §1
# ECHCG [4] = assay: Pre-emergence herbicidal action against ECHCG; type: in vivo, Echinochloa crus-galli; settings: Echinochloa crus-galli, 504 h
# In short: as §2
# DIGSA [5] = assay: Post-emergence herbicidal action against DIGSA; type: in vivo, Digitaria sanguinalis; settings: Digitaria sanguinalis, 504 h
# In short: as §1
# PHBPU = assay: Pre-emergence herbicidal action against PHBPU; type: in vivo, Pharbitis purpurea; settings: Ipomoea purpurea, 504 h; for pest or weed control at 80 g/ha: dosage 80 g/ha
# In short: as §2
# ABUTH [6] = assay: Post-emergence herbicidal action against ABUTH; type: in vivo, Abutilon theophrasti; settings: Abutilon theophrasti, 504 h, visual assessment about 3 weeks after treatment vs untreated controls; for pest or weed control at 5 g/ha: dosage 5 g/ha; for pest or weed control at 20 g/ha: dosage 20 g/ha
# In short: as §1
# MATIN [7] = assay: Pre-emergence herbicidal action against MATIN; type: in vivo, Matricaria inodora; settings: Tripleurospermum inodorum, 504 h; for pest or weed control at 20 g/ha: dosage 20 g/ha; for pest or weed control at 80 g/ha: dosage 80 g/ha
# In short: as §2
# VERPE [8] = assay: Post-emergence herbicidal action against VERPE; type: in vivo, Veronica persica; settings: Veronica persica, 504 h
# In short: as §1
# MATIN [9] = assay: Post-emergence herbicidal action against MATIN; type: in vivo, Matricaria inodora; settings: Tripleurospermum inodorum, 504 h; for pest or weed control at 5 g/ha: dosage 5 g/ha; for pest or weed control at 20 g/ha: dosage 20 g/ha
# In short: as §1
# SETVI [10] = assay: Post-emergence herbicidal action against SETVI; type: in vivo, Setaria viridis; settings: Setaria viridis, 504 h; for pest or weed control at 5 g/ha: dosage 5 g/ha; for pest or weed control at 20 g/ha: dosage 20 g/ha
# In short: as §1
# VERPE [11] = assay: Pre-emergence herbicidal action against VERPE; type: in vivo, Veronica persica; settings: Veronica persica, 504 h; for pest or weed control at 80 g/ha: dosage 80 g/ha
# In short: as §2
# SETVI [12] = assay: Pre-emergence herbicidal action against SETVI; type: in vivo, Setaria viridis; settings: Setaria viridis, 504 h; for pest or weed control at 80 g/ha: dosage 80 g/ha
# In short: as §2
# AMARE [13] = assay: Post-emergence herbicidal action against AMARE; type: in vivo, Amaranthus retroflexus; settings: Amaranthus retroflexus, 504 h, 20 g/ha, visual assessment about 3 weeks after treatment, 100% = plants have died, 0% = like control plants
# In short: as §1
# DIGSA [14] = assay: Pre-emergence herbicidal action against DIGSA; type: in vivo, Digitaria sanguinalis; settings: Digitaria sanguinalis, 504 h; for pest or weed control at 20 g/ha: dosage 20 g/ha; for pest or weed control at 80 g/ha: dosage 80 g/ha
# In short: as §2
# VIOTR [15] = assay: Pre-emergence herbicidal action against VIOTR; type: in vivo, Viola tricolor; settings: Viola tricolor, 504 h; for pest or weed control at 20 g/ha: dosage 20 g/ha; for pest or weed control at 80 g/ha: dosage 80 g/ha
# In short: as §2
# POLCO [16] = assay: Pre-emergence herbicidal action against POLCO; type: in vivo, Polygonum convolvulus; settings: Fallopia convolvulus, 504 h, dosage 80 g/ha
# In short: as §2
# ABUTH [17] = assay: Pre-emergence herbicidal action against ABUTH; type: in vivo, Abutilon theophrasti; settings: Abutilon theophrasti, 504 h; for pest or weed control at 80 g/ha: scored visually after 3 weeks vs untreated controls (100% = plants have died, 0% = like control plants); for pest or weed control at 20 g/ha: dosage 20 g/ha, scored visually after 3 weeks vs untreated controls, 100% = plants have died, 0% = like control plants, read-out: Pre-emergence action against ABUTH (herbicidal activity in percent)
# In short: as §2
# AMARE [18] = assay: Pre-emergence herbicidal action against AMARE; type: in vivo, Amaranthus retroflexus; settings: Amaranthus retroflexus, 504 h, scored visually after 3 weeks vs untreated controls, 100% = plants have died, 0% = like control plants
# In short: as §2
# ALOMY [19] = assay: Post-emergence herbicidal action against ALOMY; type: in vivo, Alopecurus myosuroides; settings: Alopecurus myosuroides, 504 h, dosage 20 g/ha, visual assessment about 3 weeks after treatment vs untreated controls
# In short: as §1
# ALOMY [20] = assay: Pre-emergence herbicidal action against ALOMY; type: in vivo, Alopecurus myosuroides; settings: Alopecurus myosuroides, 504 h, pre-emergence
# In short: as §2
Compound,pest or weed control at 20 g/ha (VIOTR [1]) [%],pest or weed control at 5 g/ha (ECHCG [2]) [%],pest or weed control at 20 g/ha (ECHCG [2]) [%],pest or weed control at 80 g/ha (AVEFA) [%],pest or weed control at 20 g/ha (POLCO [3]) [%],pest or weed control at 80 g/ha (ECHCG [4]) [%],pest or weed control at 5 g/ha (DIGSA [5]) [%],pest or weed control at 20 g/ha (DIGSA [5]) [%],pest or weed control at 80 g/ha (PHBPU) [%],pest or weed control at 5 g/ha (ABUTH [6]) [%],pest or weed control at 20 g/ha (ABUTH [6]) [%],pest or weed control at 20 g/ha (MATIN [7]) [%],pest or weed control at 80 g/ha (MATIN [7]) [%],pest or weed control at 20 g/ha (VERPE [8]) [%],pest or weed control at 5 g/ha (MATIN [9]) [%],pest or weed control at 20 g/ha (MATIN [9]) [%],pest or weed control at 5 g/ha (SETVI [10]) [%],pest or weed control at 20 g/ha (SETVI [10]) [%],pest or weed control at 80 g/ha (VERPE [11]) [%],pest or weed control at 80 g/ha (SETVI [12]) [%],also measured
Cn1nnnc1NC(=O)c1ccc(C(F)F)c(C(=O)NC2CC2)c1C1CC1 [Example 1-306],90,90,90,80,80,100,90,90,90,80,80,100,100,90,90,90,90,90,90,100,pest or weed control at 20 g/ha (AMARE [13]): 100%; pest or weed control at 20 g/ha (DIGSA [14]): 100%; pest or weed control at 80 g/ha (DIGSA [14]): 100%; pest or weed control at 20 g/ha (VIOTR [15]): 100%; pest or weed control at 80 g/ha (VIOTR [15]): 100%; pest or weed control at 80 g/ha (POLCO [16]): 90%; pest or weed control at 80 g/ha (ABUTH [17]): 100%; pest or weed control at 20 g/ha (ABUTH [17]): 100%; pest or weed control at 20 g/ha (AMARE [18]): 100%; pest or weed control at 80 g/ha (AMARE [18]): 100%
CCNC(=O)c1c(C(F)(F)F)ccc(C(=O)Nc2nnnn2CC)c1C1CC1 [Example 2-287],90,80,80,80,100,100,90,90,80,80,80,100,100,100,90,90,80,90,100,100,"pest or weed control at 20 g/ha (ALOMY [19]): 90%; pest or weed control at 5 g/ha (VIOTR [1]; 5 g/ha): 80%; pest or weed control at 20 g/ha (ECHCG [4]; 20 g/ha): 90%; pest or weed control at 20 g/ha (PHBPU; dosage 20 g/ha): 80%; pest or weed control at 5 g/ha (VERPE [8]; 5 g/ha): 80%; pest or weed control at 80 g/ha (ALOMY [20]; 80 g/ha, scored visually after 3 weeks vs untreated controls (100% = plants have died, 0% = like control plants)): 90%; pest or weed control at 20 g/ha (ALOMY [20]; 20 g/ha, scored visually after 3 weeks, 100% = plants have died, 0% = like control plants): 80%; pest or weed control at 20 g/ha (VERPE [11]; dosage 20 g/ha): 90%; pest or weed control at 20 g/ha (SETVI [12]; dosage 20 g/ha): 90%; pest or weed control at 20 g/ha (AMARE [13]): 100%; pest or weed control at 20 g/ha (DIGSA [14]): 100%; pest or weed control at 80 g/ha (DIGSA [14]): 100%; pest or weed control at 20 g/ha (VIOTR [15]): 100%; pest or weed control at 80 g/ha (VIOTR [15]): 100%; pest or weed control at 80 g/ha (POLCO [16]): 80%; pest or weed control at 80 g/ha (ABUTH [17]): 100%; pest or weed control at 20 g/ha (ABUTH [17]): 100%; pest or weed control at 20 g/ha (AMARE [18]): 100%; pest or weed control at 80 g/ha (AMARE [18]): 100%"
